Test results from patent US9255106B2, “Substituted [1,2,4]triazolo[4,3-a]pyrazines as PARP-1 inhibitors” (SHANGHAI INSTITUTE OF MATERIA MEDICA, CHINESE ACADEMY OF …, priority 2012, dated 2016).
Marks after values point to notes of the source that are not given here.

Legend:
[1] = system: OVCAR-8; experiment: Inhibition of tumor cell proliferation, OVCAR-8; details: Homo sapiens
[2] = system: Capan-1; experiment: Inhibition of tumor cell proliferation, Capan-1; details: Homo sapiens
[3] = in vivo; cited from earlier work
[4] = system: U251; experiment: Inhibition of tumor cell proliferation, U251; details: Homo sapiens, U-251
[5] = system: U87-MG; experiment: Inhibition of tumor cell proliferation, U87-MG; details: Homo sapiens, U-87 MG
[6] = system: MDA-MB-436 human breast cancer; experiment: Antitumor activity in vivo, subcutaneously transplanted tumor in MDA-MB-436 human breast cancer nude mice; details: for TV (mean ± SD) d0: d0 (at grouping); for RTV (mean ± SD) / T/C (%) / TV (mean ± SD) d21 / number of animals in which tumor regressed: d21; for number of animals in which tumor regressed: 6 animals
Description: A tumor tissue in vigorous growing period was cut into about 1.5 mm^3, and inoculated subcutaneously into right armpit of nude mice under a sterile condition. The diameter of subcutaneous transplant tumor in nude mice was measured by vernier caliper. When the tumor grew to 100-200 mm^3, the animals were randomly grouped. […] Solvent control group was administered saline in same volume. During the whole experiment, the tumor diameter was measured twice a week, while the body weight of mice was weighed simultaneously. The formula to calculate tumor volume (TV) was TV=½*a*b^2, wherein a and b respectively referred to length and width. Relative tumor volume (RTV) was calculated according to the measurements, and the formula is RTV=Vt/V0, wherein V0 is the tumor volume measured when the mice were grouped (i.e. d0), and Vt is the tumor volume measured each time.

[7] = system: PC-3; experiment: Inhibition of tumor cell proliferation, PC-3; details: Homo sapiens
[8] = system: V8 cell; experiment: PARP1 inhibitory activity at cellular level (proliferation inhibition model); details: read-out: PARP1 inhibitory activity at cellular level (%)

Row | SMILES | inhibition at 0.0016 µM [8] [%] | inhibition at 0.008 µM [8] [%] | inhibition at 0.04 µM [8] [%] | inhibition at 0.2 µM [8] [%] | inhibition at 1 µM [8] [%] | further results
1 | O=C(c1cc(Cc2n[nH]c(=O)c3ccccc23)ccc1F)N1CCN(C(=O)C2CC2)CC1 [AZD2281, olaparib, reference compound] | – | – | – | – | – | IC50 [1]: 12400 nM; IC50 [2]: 729 nM; bioavailability [3]: < 15%; half-life time [3]: < 1 h; IC50 [4]: 1190 nM; IC50 [5]: 2920 nM; TV (mean ± SD) d0 ([6]; 100 mg/kg, po, qd × 21): 127 ± 37 mm^3; RTV (mean ± SD) ([6]; 100 mg/kg, po, qd × 21): 0.95 ± 0.78**; T/C (%) ([6]; 100 mg/kg, po, qd × 21): 6.65%; TV (mean ± SD) d21 ([6]; 100 mg/kg, po, qd × 21): 120 ± 118 mm^3; IC50 [7]: 3920 nM
2 | CC1CN(C(=O)c2cc(Cc3n[nH]c(=O)c4ccccc34)ccc2F)Cc2nnc(C(F)F)n21 (centres unmarked) [Compound S17] | 4.61 | 12.1 | 65.6 | 76.5 | 79.7 | –
3 | CC1c2nnc(CF)n2C(C)CN1C(=O)c1cc(Cc2n[nH]c(=O)c3ccccc23)ccc1F (centres unmarked) [Compound S19] | 2.09 | -2.17 | 3.32 | 0.4 | 0.69 | –
4 | CC1c2nnc(C(F)(F)F)n2C(C)CN1C(=O)c1cc(Cc2n[nH]c(=O)c3ccccc23)ccc1F (centres unmarked) [Compound S5] | -5.06 | -3.01 | 23.5 | 63.8 | 73.5 | –
5 | CC1c2nnc(C(F)(F)F)n2CCN1C(=O)c1cc(Cc2n[nH]c(=O)c3ccccc23)ccc1F (centres unmarked) [Compound S4] | -1.36 | 8.66 | 53.1 | 75.5 | 75.7 | –
6 | CC1CN(C(=O)c2cc(Cc3n[nH]c(=O)c4ccccc34)ccc2F)Cc2nnc(C(F)(F)F)n21 (racemic) [Compound S3] | -3.11 | 33.1 | 61.2 | 70.1 | 74.4 | IC50 [1]: 10500 nM; IC50 [2]: 7.6 nM; IC50 [5]: 228 nM; TV (mean ± SD) d0 ([6]; 25 mg/kg, po, qd × 21): 127 ± 30 mm^3; RTV (mean ± SD) ([6]; 25 mg/kg, po, qd × 21): 1.40 ± 0.71**; T/C (%) ([6]; 25 mg/kg, po, qd × 21): 9.80%; TV (mean ± SD) d21 ([6]; 25 mg/kg, po, qd × 21): 165 ± 57 mm^3; number of animals in which tumor regressed ([6]; 25 mg/kg, po, qd × 21): 3; tumor outcome ([6]; 100 mg/kg): the tumor completely disappeared; side effects ([6]; 100 mg/kg and 25 mg/kg, po, qd × 21): no significant side effects; TV (mean ± SD) d0 ([6]; 100 mg/kg, po, qd × 21): 128 ± 36 mm^3; RTV (mean ± SD) ([6]; 100 mg/kg, po, qd × 21): 0.08 ± 0.04**; T/C (%) ([6]; 100 mg/kg, po, qd × 21): 0.59%; TV (mean ± SD) d21 ([6]; 100 mg/kg, po, qd × 21): 11 ± 7 mm^3; number of animals in which tumor regressed ([6]; 100 mg/kg, po, qd × 21): 1; IC50 [7]: 995 nM
7 | COC1CN(C(=O)c2cc(Cc3n[nH]c(=O)c4ccccc34)ccc2F)Cc2nnc(C(F)(F)F)n21 (centres unmarked) [Compound S10] | 11.6 | 10.5 | 31.8 | 67.5 | 78.6 | –
8 | CC1CN(C(=O)c2cc(Cc3n[nH]c(=O)c4ccccc34)ccc2F)Cc2nnc(CF)n21 (centres unmarked) [Compound S18] | 7.63 | 54.1 | 77 | 77 | 78.4 | –
